The structures appear in SMILES notation.

Two molecules from publication PMC7037732, “Synthesis of Combretastatin A-4 and 3′-Aminocombretastatin A-4 derivatives with Aminoacid Containing Pendants and Study of their Interaction with Tubulin and as Downregulators of the VEGF, hTERT and c-Myc Gene Expression” (Molecules, 2020) can be followed below.

The subject of data set [1] is HT-29 (human colon adenocarcinoma). Briefly: Inhibition of cell proliferation (MTT), HT-29. In kind it is cell-based. Particulars: Homo sapiens, 48 h of treatment (footnote), average ±SD of three experiments.
Data set [2] relates to MCF-7 (breast adenocarcinoma). Nature of the data set: Inhibition of cell proliferation (MTT), MCF-7. In kind it is cell-based, human. To be noted: Homo sapiens, 48 h of treatment (footnote), average ±SD of three experiments.
The subject of data set [3] is A-549 (human pulmonary adenocarcinoma). Briefly: Inhibition of cell proliferation (MTT), A-549. To be noted: Homo sapiens, A549, 48 h, 48 h of treatment (footnote), average ±SD of three experiments. In kind it is cell-based. An outline of the steps:
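Antiproliferative activity against A-549 human pulmonary adenocarcinoma cells was measured by MTT assay. Cells were seeded at 25,000/mL in 96-well plates, cultured 24 h, then exposed to compounds at various concentrations. MTT (20 µL, 5 mg·mL^−1) was added for 2 h at 37 °C, formazan dissolved in 200 µL DMSO, and absorbance read at 540 nm. IC50 values came graphically from three independent experiments.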

Data set [4] has as its system HEK-293 (human embryonic kidney cells). Briefly: Inhibition of cell proliferation (MTT), nontumor HEK-293. In kind it is cell-based. To be noted: Homo sapiens, 48 h of treatment (footnote), average ±SD of three experiments.
The subject of a further data set is purified tubulin. Briefly: Critical concentration (CrC) for the assembly of purified tubulin in GAB. In kind it is biochemical. Particulars: compound 27.5 μM, tubulin 25 μM, glycerol (GAB) and GTP assembly buffer; control 7.9 ± 1.2. As for the experimental part:
The effect on the self-assembly of tubulin was determined by measuring the critical concentration (CrC).

In another data set the test system is tubulin. Nature of the data set: In vitro tubulin polymerization by turbidimetry (It50). In kind it is biochemical. Particulars: turbidimetry at 350 nm, 37 °C; control 16.6 ± 1.0. As for the experimental part:
Figure 3 also includes polymerization curves in the presence of CA-4, AmCA-4 and paclitaxel. This test was also performed using paclitaxel, a microtubule stabilizing agent, as a control for the complete formation of microtubules (see Figure 3).

Data set [5] deals with A-549 cells. Nature of the data set: Cell cycle distribution by flow cytometry. In kind it is cell-based, human. To be noted: A-549, 24 h, 40 µM. An outline of the steps: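 A-549 cells were harvested, fixed in cold 70% ethanol (30 min, −20 °C), then stained with 50 µg/mL propidium iodide plus 100 µg/mL RNase A in PBS for 20 min at room temperature in the dark. Flow cytometry used 488 nm excitation and 620 nm emission, giving the percentage of cells in G2/M.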

Data set [6] has as its system A-549 cells. Nature of the data set: Effect on the cellular microtubule network (immunofluorescence). In kind it is cell-based, human. The method, then:
The effect on the cellular microtubule network of CA-4 derivatives was studied for compounds 1, 3.7 (L-Thr-OMe), 3.8 (L-Tyr-OMe), 4.2 (L-Val) and 4.3 (L-Leu), which were those accumulating more cells in the G2/M phase. Thus, A-549 cells were incubated for 24 h in the presence of the above compounds and CA-4 at the concentrations indicated in Figure 4.
The effect of some derivatives on the cellular microtubule network were also studied on A-549 cells. The selected compounds were 7.1 (Fmoc-Gly) (0.5 μM), 8.1 (Gly) (2 μM), 8.2 (L-Ala) (3 μM) and 10.1 (D-Val) (40 μM), which were those exerting a higher effect on the cell cycle.
For immunofluorescence microscopy of the microtubule network, 10^6 cells were plated on cover glass and incubated with the different drugs. Cells were then fixed in 3.7% formaldehyde (in PBS pH 7.4) for 20 min at room temperature and permeabilized with PBS-Triton X-100 0.5% for 10 min at room temperature. Direct immunostaining was carried out for 2 h at room temperature with a primary FITC-conjugated anti-α-tubulin antibody (dilution 1:400 in PBS-BSA 1% from a 1 mg/mL solution; monoclonal antibody, clone DM1A; Sigma-Aldrich, Darmstadt, Germany.). Next, cells were incubated for 45 min at room temperature in darkness with secondary Alexa Fluor 488-conjugated antibodies (dilution 1:200 each from 1.5 mg/mL; Molecular Probe, France). Then, cells were washed in PBS and cover glasses were mounted with a drop of ProLong® antifade solution (Invitrogen). The cytoskeleton was imaged by a confocal laser scanning microscope (CLSM) Leica SP5 with a Leica inverted microscope, equipped with a Plan-Apochromat 63× oil immersion objective (NA = 1.4). Each image was recorded with the CLSM’s spectral mode selecting specific domains of the emission spectrum. The FITC fluorophore was excited at 488 nm with an argon laser, and its fluorescence emission was collected between 496 nm and 535 nm.

In turn, `COc1ccc(/C=C\c2cc(OC)c(OC)c(OC)c2)cc1OCC(=O)O` [Compound 2, (Z)-2-(2-Methoxy-5-(3,4,5-trimethoxystyryl)phenoxy)acetic acid] displayed a melting point of 109 to 111 °C. The molecule also returned a half-inhibitory concentration (IC50) in data set [1] (HT-29, Table 1) of 33 ± 6 µM. Also, in data set [2] (MCF7, Table 1), the half-inhibitory concentration (IC50) was 11 ± 5 µM. Also, 38 ± 5 µM corresponded to half-maximal inhibition in [3] (Table 1) (IC50). In addition, the IC50 in data set [4] (HEK293, Table 1) turned out to be 12 ± 5 µM. Besides, the “CrC (critical concentration)” value in the data set on purified tubulin came out at 12.0 ± 0.7 µM.

In the case of `COc1ccc(/C=C\c2cc(OC)c(OC)c(OC)c2)cc1NC(=O)[C@H](N)C(C)C` [Compound 10.1], the IC50 turned out to be 4.8 ± 0.6 µM in [1] (HT-29, 48 h, Table 2); 4.7 ± 0.7 µM in [2] (MCF7, 48 h, Table 2); 9.9 ± 1.3 µM in [3] (Table 2); 2.4 ± 0.3 µM in [4] (HEK293, 48 h, Table 2). For the same molecule, in the data set on purified tubulin, the “CrC (critical concentration)” value worked out at 12.8 ± 0.3 µM. Besides, the “It50 (time required to reach 50% of the polymerization)” value in the data set with tubulin came out at 17.1 ± 1.3 min. In addition, in the data set with A-549 cells [5], the G0/G1 came out at 26 ± 2%. For the same molecule, in the data set on A-549 cells [5], the G2/M is recorded as 60 ± 1%. Further, the S in the data set on A-549 cells [5] amounted to 14 ± 1%. Moreover, the “Effect on the microtubule network” value is “much less active” with A-549 cells [6] (A-549, 0.5 μM) and “almost total depolymerization of the microtubule network” in the data set on A-549 cells [6] (A-549, 40 μM).
